The values that follow come from patent US9540338B2, “Substituted cinnamic acid amides for treating pain” (NIPPON ZOKI PHARMACEUTICAL CO., LTD., priority 2012, dated 2017).

In one series the test system is Chung model rat. Kind of series: Analgesic efficacy test (2): Chung model rat, neuropathic pain model (allodynia, von Frey filament). Conditions: mean ± standard error. The class given is in vivo, rats. How it is done: An analgesic efficacy test was conducted using a Chung model rat, a neuropathic pain model. Nine-week old Wistar male rats were previously bred as an experimental animal, and a model rat was then prepared in accordance with the method of Kim and Chung (Pain, 50, 355-363, 1992). Specifically, left L5 spinal nerves of rats were exposed under anesthetization with pentobarbital (40 mg/kg, intraperitoneal administration), and firmly ligated with 5-0 silk yarn at L5 dorsal root ganglion peripheral side. The animals were placed in a transparent acrylic cage of which bottom was wire netted The measurement of allodynia was carried out using von Frey filament (manufactured by North Coast Medical Inc.) and a 50% reaction threshold was calculated according to an up-down method, in accordance with a method of Chaplan et al. (J. Neurosci. Method, 53, 55-63, 1994). The 50% reaction thresholds were measured twice before injury of the spinal nerve, and those animals of which thresholds were outside the standard were removed from the operation of spinal nerve injury. On or after 14 days from the spinal nerve injury, a 50% reaction threshold was measured, and those showing thresholds of 1 g or more and less than 4 g were used as experimental animal. The group was constituted by 7 or 8 rats per group so that an average of a 50% reaction threshold for each group would be nearly even.
A solution or suspension prepared by dissolving or suspending a compound of the present invention in a 0.5% (w/v) aqueous CMC-Na solution was orally administered as a test substance in a single dose. Also, a 0.5% (w/v) aqueous CMC-Na solution was administered in the same manner to the control group for nerve injury. The measurements of allodynia were carried out with the passage of time after administration, and a 50% reaction threshold (mean±standard error) of each group at action peak was calculated. In the test for significance difference, Bartlett's test was carried out in the comparison between multiple groups of the group administered with test substance with the control group for nerve injury. In the case of homoscedasticity, Dunnett's multiple comparison test of parametrics, and in the case of heteroscedasticity, Dunnett's multiple comparison test of non-parametrics were used. In all cases, significance difference was considered to be found at P<0.05 (indicated as “*” in the tables).

[1] abbreviates: oral 1 mg/kg, measurement point 90 minute (action peak).
Setting [2] is: oral 10 mg/kg, measurement point 90 minute (action peak).
[3] abbreviates: oral 1 mg/kg, measurement point 60 minute (action peak).
Where [4] appears, read: oral 10 mg/kg, measurement point 60 minute (action peak).

Counter-ions that a name gives are not always drawn. Marks after values point to notes of the source that are not given here.

For the molecule `Cl.O=C(/C=C/c1ccccc1F)NCCc1cccnc1`, the melting point was in the range of 116 to 117 °C.

In turn, `CN(C)CCCCNC(=O)/C=C/c1ccccc1F.Cl` registered a melting point of 107 to 108 °C. In turn, `Cl.O=C(/C=C/c1cccc(C(=O)O)c1)NCCn1ccnc1` displayed a melting point of 195 to 197 °C.

Turning to `Cl.O=C(/C=C/c1ccc(C(=O)O)cc1)NCCn1ccnc1`, the melting point was 237 to 238 °C. The same measure, in the same setting: as for `Cl.O=C(/C=C/c1ccccc1C(F)(F)F)NCCCN1CCOCC1`, the figure is 197 to 198 °C; as for `Cl.O=C(/C=C/c1ccccc1F)NCCCN1CCCCC1`, 166 to 167 °C; as for `Cl.O=C(/C=C/c1ccccc1F)NCCCNC1CCCCC1`, 227 to 228 °C. Turning to `C/C(=C\c1ccccc1F)C(=O)NCCCN1CC[S+]([O-])CC1.Cl`, the melting point lay in the range of 180 to 181 °C. Regarding `O=C(/C=C/c1ccccc1F)NCCCN1CCNCC1` (as salt: hydrochloride), the melting point fell in the range of 143 to 144 °C. Still for that read-out and setting: as for `O=C(/C=C/c1ccccc1F)NCCc1ccccn1` (as salt: hydrochloride) [Compound 9, (E)-3-(2-Fluorophenyl)-N-[2-(2-pyridyl)ethyl]-2-propenamide hydrochloride], the figure is 86 to 87 °C.

In turn, `CN1CCN(CCCNC(=O)/C=C/c2ccccc2F)CC1` (as salt: hydrochloride) [Compound 15, (E)-3-(2-Fluorophenyl)-N-[3-(4-methylpiperazin-1-yl)propyl]-2-propenamide dihydrochloride] gave a melting point of 133 to 138 °C. On to `O=C(/C=C/c1ccccc1F)NCCN1CCNCC1` (as salt: hydrochloride) [Compound 16, (E)-3-(2-Fluorophenyl)-N-[2-(piperazin-1-yl)ethyl]-2-propenamide dihydrochloride], for which the melting point lay within 212 to 213 °C. Molecule `Nc1ccccc1CCNC(=O)/C=C/c1ccccc1F` [Compound 19, (E)-N-[2-(2-Aminophenyl)ethyl]-3-(2-fluorophenyl)-2-propenamide] gave a melting point of 128 to 129 °C. Regarding `O=C(/C=C/c1ccccc1F)NCCn1cnc2ccccc21` [Compound 22, (E)-N-[2-(Benzoimidazol-1-yl)ethyl]-3-(2-fluorophenyl)-2-propenamide], the melting point was 143 to 145 °C.

Turning to `O=C(/C=C/c1ccc(F)cc1F)NCCn1ccnc1` [Compound 23, (E)-3-(2,4-Difluorophenyl)-N-[2-(imidazol-1-yl)ethyl]-2-propenamide], the melting point fell in the range of 113 to 115 °C. In addition, the “50% Reaction Threshold, Group Administered with Test Substance, After Administration” value (“50% Reaction Threshold” below) in the series on Chung model rat (setting [1]) is reported as 8.22 ± 1.43* g. In addition, the “50% Reaction Threshold” value in the series on Chung model rat (setting [2]) is given as 9.81 ± 1.27* g. `O=C(/C=C/c1cc(F)ccc1F)NCCn1ccnc1` [Compound 24, (E)-3-(2,5-Difluorophenyl)-N-[2-(imidazol-1-yl)ethyl]-2-propenamide] registered a melting point of 118 to 120 °C. Moreover, the “50% Reaction Threshold” value in the series with Chung model rat (setting [3]) was found to be 4.63 ± 0.36 g. Besides, in the series with Chung model rat (setting [4]), the “50% Reaction Threshold” value is listed as 7.85 ± 0.99* g. `O=C(/C=C/c1cccc(F)c1)NCCCN1CCOCC1` [Compound 25, (E)-3-(3-Fluorophenyl)-N-(3-morpholinopropyl)-2-propenamide] registered a melting point of 80 to 81 °C. Further, the “50% Reaction Threshold” value in the series on Chung model rat (setting [3]) was 8.17 ± 1.09* g. The “50% Reaction Threshold” value in the series on Chung model rat (setting [4]) is 9.68 ± 1.20* g. Taken in the same sequence, the figures for `O=C(/C=C/c1ccc(F)cc1)NCCCN1CCOCC1` [Compound 26, (E)-3-(4-Fluorophenyl)-N-(3-morpholinopropyl)-2-propenamide] were 88 to 89 °C, 10.25 ± 1.07* g and 14.33 ± 0.67* g.

In the case of `O=C(/C=C/c1cccc(F)c1F)NCCCN1CCOCC1` [Compound 27, (E)-3-(2,3-Difluorophenyl)-N-(3-morpholinopropyl)-2-propenamide], the melting point fell in the range of 97 to 99 °C. Molecule `O=C(/C=C/c1ccc(F)cc1F)NCCCN1CCOCC1` [Compound 28, (E)-3-(2,4-Difluorophenyl)-N-(3-morpholinopropyl)-2-propenamide] yielded a melting point of 94 to 95 °C. Moreover, the “50% Reaction Threshold” value in the series on Chung model rat (setting [3]) is listed as 8.44 ± 1.81* g. Besides, the “50% Reaction Threshold” value in the series on Chung model rat (setting [4]) was 12.05 ± 1.44* g. The molecule `O=C(/C=C/c1c(F)cccc1F)NCCCN1CCOCC1` [Compound 30, (E)-3-(2,6-Difluorophenyl)-N-(3-morpholinopropyl)-2-propenamide] had a melting point of 75 to 76 °C. On the same count and under the same terms, as for `O=C(/C=C/c1ccc(F)c(F)c1)NCCCN1CCOCC1` [Compound 31, (E)-3-(3,4-Difluorophenyl)-N-(3-morpholinopropyl)-2-propenamide], the figure is 127 to 128 °C; as for `O=C(/C=C/c1ccc(C(F)(F)F)cc1F)NCCCN1CCOCC1` [Compound 32, (E)-3-(2-Fluoro-4-trifluoromethylphenyl)-N-(3-morpholinopropyl)-2-propenamide], 102 to 103 °C; as for `O=C(/C=C/c1ccccc1F)NCCN1CCCC1` [Compound 35, (E)-3-(2-Fluorophenyl)-N-[2-(pyrrolidin-1-yl)ethyl]-2-propenamide], 83 to 84 °C. Still for that read-out and setting: the figure for `O=C(/C=C/c1ccccc1F)NCCN1CCCCCC1` [Compound 36, (E)-N-[(2-Azepan-1-yl)ethyl]-3-(2-fluorophenyl)-2-propenamide] is 80 to 81 °C; for `COc1ccc(CCNC(=O)/C=C/c2ccccc2F)cc1` [Compound 37, (E)-3-(2-Fluorophenyl)-N-[2-(4-methoxyphenyl)ethyl]-2-propenamide] it is 123 to 124 °C. With `O=C(/C=C/c1ccccc1F)NCCn1cncn1` [Compound 39, (E)-3-(2-Fluorophenyl)-N-[2-([1,2,4]triazol-1-yl)ethyl]-2-propenamide dihydrochloride], the figures for the “50% Reaction Threshold” value in the series with Chung model rat (setting [1]) and with Chung model rat (setting [2]) were 3.55 ± 0.59 g and 4.05 ± 0.48* g, respectively. `O=C(/C=C/c1ccccc1F)NCCn1ccc2ccccc21` [Compound 41, (E)-3-(2-Fluorophenyl)-N-[2-(indol-1-yl)ethyl]-2-propenamide]: the melting point was 96 to 98 °C. On the same count and under the same terms, as for `O=C(/C=C/c1ccccc1F)NCCn1ccnc1-c1ccccc1` [Compound 44, (E)-3-(2-Fluorophenyl)-N-[2-(2-phenylimidazol-1-yl)ethyl]-2-propenamide], the figure is 163 to 164 °C.

On to `Cl.O=C(/C=C/c1ccccc1F)NCCCn1ccnc1` [Compound 45, (E)-3-(2-Fluorophenyl)-N-[3-(imidazol-1-yl)propyl]-2-propenamide hydrochloride], for which the “50% Reaction Threshold” value in the series with Chung model rat (setting [1]) is listed as 8.81 ± 1.05* g; with Chung model rat (setting [2]) it was 12.23 ± 1.10* g. For `O=C(/C=C/c1ccccc1C(=O)O)NCCn1ccnc1` [Compound 47, (E)-3-(2-Carboxyphenyl)-N-[(2-imidazol-1-yl)ethyl]-2-propenamide], the “50% Reaction Threshold” value with Chung model rat (setting [3]) was 10.58 ± 1.74* g; with Chung model rat (setting [4]), 13.58 ± 0.67* g. Take `O=C(/C=C/c1ccccc1F)Nc1ccc(-c2ccn[nH]2)cc1` [Compound 51, (E)-3-(2-Fluorophenyl)-N-[4-(2H-pyrazol-3-yl)phenyl]-2-propenamide]: the melting point fell in the range of 116 to 118 °C. Take `O=C(/C=C/c1ccccc1F)Nc1cccc(-c2ccn[nH]2)c1` [Compound 52, (E)-3-(2-Fluorophenyl)-N-[3-(2H-pyrazol-3-yl)phenyl]-2-propenamide]: the “50% Reaction Threshold” value is given as 7.42 ± 1.14* g with Chung model rat (oral 1 mg/kg, measurement point 30 minute (action peak)) and 9.12 ± 2.00* g in the series on Chung model rat (oral 10 mg/kg, measurement point 30 minute (action peak)). For the molecule `O=C(/C=C/c1ccccc1F)Nc1ccc(-c2ccno2)cc1` [Compound 53, (E)-3-(2-Fluorophenyl)-N-[4-(isoxazol-5-yl)phenyl]-2-propenamide], the melting point was 204 to 206 °C. Turning to `N#C/C(=C\c1ccc(F)cc1)C(=O)NCCCN1CCOCC1` [Compound 58, (E)-2-Cyano-3-(4-fluorophenyl)-N-(3-morpholinopropyl)-2-propenamide], the melting point was in the range of 110 to 111 °C. The same measure, in the same setting: the figure for `O=C(O)CCNC(=O)/C=C/c1ccccc1F` [Compound 66, 3-{[(E)-3-(2-Fluorophenyl)-2-propenoyl]amino}propanoic acid] is 193 to 195 °C.
